In article PMC9764189 (The Journal of Biological Chemistry, 2022):
Like-named read-outs stand apart in the source and are kept apart here.

How the values were obtained:
[1] = target: MR1 (Homo sapiens, UniProt Q95460); experiment: biochemical; type: binding; settings: for IC50: IC50, 10 nM JYM20, 100 nM MR1-empty, 25 °C, pH 7.5; for Binder category (ligand affinity for MR1): category by IC50
[2] = tested on: C1R.MR1 cells

MR1, sequence (Q95460 23-302 limits assumed): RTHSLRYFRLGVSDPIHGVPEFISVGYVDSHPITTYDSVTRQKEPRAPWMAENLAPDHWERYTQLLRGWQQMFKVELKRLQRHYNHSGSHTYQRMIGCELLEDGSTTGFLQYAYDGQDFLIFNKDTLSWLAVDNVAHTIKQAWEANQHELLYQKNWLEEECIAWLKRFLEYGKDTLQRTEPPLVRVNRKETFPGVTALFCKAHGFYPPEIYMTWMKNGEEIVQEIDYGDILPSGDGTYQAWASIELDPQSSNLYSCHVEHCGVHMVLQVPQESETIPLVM
MR1, sequence (P61769 21-119 partner): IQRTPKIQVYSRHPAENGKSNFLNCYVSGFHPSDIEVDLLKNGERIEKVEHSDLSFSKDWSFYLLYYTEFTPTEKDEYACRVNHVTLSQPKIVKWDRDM

SMILES | IC50 [1] [µM] | Upregulation of surface MR1 ([2]; 3 h incubation) | Upregulation of surface MR1 ([2]; 16 h incubation) | Binder category (ligand affinity for MR1) [1] | Concentration at which MR1 was upregulated significantly ([2]; 3 h incubation, versus DMSO) [µM]
O=Cc1cccc(C(=O)O)c1O [3-F-SA, 3-formylsalicylic acid] | 0.563 |  |  |  | 
O=C(O)CCNC(=O)c1cc(=O)[nH]c(=O)[nH]1 [DB28, 3-[(2,6-dioxo-1,2,3,6-tetrahydropyrimidin-4-yl)formamido]propanoic acid] | 20 |  |  |  | 
O=C(O)Cc1ccccc1Nc1c(Cl)cccc1Cl [DCF, diclofenac] | 2600 |  |  |  | 
CCOc1cc(C=O)ccc1O [Ethylvanillin, ethylvanillin] | 325 | upregulated | no noticeable upregulation |  | 
COc1ccc(O)c(C=O)c1 [HMB, 2-hydroxy-5-methoxybenzaldehyde] | 775 |  |  | weak (weak (IC50 > 100 μM)) | 
COc1cc(C=O)ccc1O [Vanillin, vanillin] | 325 | upregulated | modest increase | weak (weak (IC50 > 100 μM)) | 10
